According to US9506032B2, “Engineered biological pacemakers” (The United States of America, as represented by the …, priority 2009, dated 2016):

Key:
Assay type in all cases: cell-based, Mouse
[1] = tested on: spontaneously beating ESCs; test: Spontaneous action potentials and Ca2+ signals in intact spontaneously beating ESCs (patch clamp with confocal imaging); conditions: for LCRs (effect of intervention) / spontaneous AP firing and Ca2+ transients: intact spontaneously beating ESCs (FIG. 6)
Text: (§1) Mouse ES cells of line R1 were differentiated into cardiac cells using the “hanging drop” technique. ESCs were isolated from in vitro-grown embryoid bodies by microdissection followed by collagenase treatment. […] At day 2, EBs were transferred into bacteriological petri dishes and cultured in suspension until day 5. […] Individual spontaneously beating ESCs were isolated by microdissection and collagenase treatment.
ESCs differentiated in vitro for 9 to 20 days after plating of 7 days old embryoid bodies were studied during continuous superfusion with solution containing in mmol/L: 140 NaCl, 5.4 KCl, 5 HEPES, 2 MgCl2, 1.8 CaCl2, 10 glucose, (pH adjusted to 7.4 with NaOH). Selection of the cells for patch-clamp technique was based on spontaneous beating. Action potentials were measured at physiological temperature (35±2° C.) with standard current-clamp technique (Axopatch 200, Axon Instruments, Foster City, Calif., USA), pCLAMP7 software was used for data acquisition and analysis (Axon Instruments). Perforated patch-clamp technique was performed with β-escin added to the electrode solution. Patch pipette solution contained in mmol/L: 120 K-gluconate, 5 NaCl, 5 Mg-ATP, 5 HEPES, 20 KCl, 3 Na2ATP (pH adjusted to 7.2 with NaOH). […] Patch pipette filling solution contained (in mmol/L) 120 CsCl, 10 NaCl, 20 tetraethylammonium chloride, 5 MgATP, and 20 HEPES (pH 7.2 adjusted with CsOH), and 100 μmol/L fluo-4 pentapotassium salt (Molecular Probes). Four conditioning pulses of 100 ms and 0 mV were delivered at 1.0 Hz prior to each test voltage pulse to load the SR with Ca^2+.
In whole cell configuration, fluo-4 was added directly to the pipette solution.
(§2) Fluo-4 measurements are presented in terms of F/F0 (normalized Ca^2+ signal). […] were analyzed by programs developed using Delfi-7 software. The duration and width of LCRs were measured as the time at half-maximal amplitude of the normalized signal.

[2] = tested on: Na+/Ca2+ exchanger (NCX) current in ESCs; test: Inward NCX current spikes in ESCs voltage-clamped at -50 mV; conditions: voltage clamp −50 mV, Na+ substituted by Li+ inhibiting NCX; 10 to 20 pA in control
Experimental: ESCs differentiated in vitro for 9 to 20 days after plating of 7 days old embryoid bodies were studied during continuous superfusion with solution containing in mmol/L: 140 NaCl, 5.4 KCl, 5 HEPES, 2 MgCl2, 1.8 CaCl2, 10 glucose, (pH adjusted to 7.4 with NaOH). Selection of the cells for patch-clamp technique was based on spontaneous beating. Action potentials were measured at physiological temperature (35±2° C.) with standard current-clamp technique (Axopatch 200, Axon Instruments, Foster City, Calif., USA), pCLAMP7 software was used for data acquisition and analysis (Axon Instruments). Perforated patch-clamp technique was performed with β-escin added to the electrode solution. Patch pipette solution contained in mmol/L: 120 K-gluconate, 5 NaCl, 5 Mg-ATP, 5 HEPES, 20 KCl, 3 Na2ATP (pH adjusted to 7.2 with NaOH). Recording of L-type Ca^2+ current (ICaL) simultaneously with Ca^2+ signal imaging (see Example 3) were performed under whole cell voltage clamp. […]
When activation of ion channels and APs are disabled by voltage clamp at −50 mV, spontaneous LCRS for at least 5 s were observed (FIG. 4, Panel A). […] It was determined under the voltage clamp whether LCRs can cause the current spikes via NCX activation. […]

saponin-skinned ESCs = test: Local Ca2+ releases (LCRs) in saponin-skinned ESCs, confocal line-scan Ca2+ imaging; conditions: for LCRs (effect of drug): skinned ESCs, 150 nmol/L free [Ca2+]
Text: as §1, §2

Compound: [Li+] [Li^+]
- spontaneous excitation (APs) ([1]; Na+-free lithium solution applied ~1 s, zero-current clamp, rhythmic LCRs continued): excitation failure
- high-amplitude inward current spikes [2]: disappeared

Compound: ryanodine
- LCRs (effect of intervention) [1]: inhibited
- spontaneous AP firing and Ca2+ transients [1]: became irregular, culminating in cessation of automaticity or in extremely rare and irregular beating
- LCRs (effect of drug) (saponin-skinned ESCs; 10 μmol/L drug): inhibited

Compound: Nc1ncnc2c1ncn2[C@@H]1O[C@@H]2COP(=O)(O)O[C@H]2[C@H]1O [cAMP, cyclic AMP]
- local Ca2+ oscillators (saponin-skinned ESCs; saponin-skinned ESCs, stimulation with 20 μmol/L cAMP): emergence of new local Ca^2+ oscillators in many cell locations

Compound: CC(=O)OCOC(=O)CN(CC(=O)OCOC(C)=O)c1ccccc1OCCOc1ccccc1N(CC(=O)OCOC(C)=O)CC(=O)OCOC(C)=O [BAPTA-AM]
- LCRs (effect of intervention) [1]: inhibited
- spontaneous AP firing and Ca2+ transients [1]: became irregular, culminating in cessation of automaticity or in extremely rare and irregular beating

Compound: O=S(=O)(NCCNC/C=C/c1ccc(Br)cc1)c1cccc2cnccc12 [H89]
- APs / automaticity on PKA inhibition ([1]; spontaneously beating ESCs, 10 μmol/L): irregUlar APs or cessation of automaticity

Compound: C/C=C(/C)C(=O)O[C@H]1C(C)=C2[C@H]([C@@H]1OC(=O)CCCCCCC)[C@@](C)(OC(C)=O)C[C@H](OC(=O)CCC)[C@@]1(O)[C@H]2OC(=O)[C@@]1(C)O [thapsigargin]
- LCRs (effect of intervention) [1]: inhibited
- spontaneous AP firing and Ca2+ transients [1]: became irregular, culminating in cessation of automaticity or in extremely rare and irregular beating
- LCRs (effect of drug) (saponin-skinned ESCs; 10 μmol/L drug): inhibited

Compound: Nc1ncnc2c1nc(Sc1ccc(Cl)cc1)n2[C@@H]1O[C@@H]2COP(=O)(O)O[C@H]2[C@H]1O [CPT-cAMP]
- cycle length (CL) variability index (100%×CL standard deviation/CL mean) ([1]; cells with irregular beating, after 300 μmol/L CPT-cAMP, before 23.98+/−4.82%, P<0.05): 11.23+/−2.68%
- rhythmicity of beating ([1]; irregularly beating ESCs, 300 μmol/L CPT-cAMP): converted irregularly beating ESCs to rhythmic pacemakers

Compound: CCCCNc1ccc(C(=O)OCCN(C)C)cc1 [tetracaine]
- LCRs (effect of drug) (saponin-skinned ESCs; 1 mmol/L drug): inhibited
